Source: US20090312352A1 (priority 2004, published 2009)

Columns and labels:
Assay in all cases: biochemical
[1] = target: T1, YopH (Yersinia pestis, UniProt O68720); format: biochemical
[2] = target: T1, YopH
[3] = target: PTP 1B (Homo sapiens, UniProt P18031)
[4] = target: TCPTP (Homo sapiens, UniProt P17706)
[5] = target: LAR (Homo sapiens, UniProt P10586)
[6] = target: CD45 (Homo sapiens, UniProt P08575)
[7] = target: VHR (Homo sapiens, UniProt P51452)
[8] = target: VH1 (Vaccinia virus, UniProt P07239)
[9] = target: VHX (Homo sapiens, UniProt Q9NRW4)
[10] = target: HePTP (Homo sapiens, UniProt P35236)
[11] = target: LMPTP B (Homo sapiens, UniProt P24666)
[12] = target: T1, YopH; format: binding

SMILES: O=C(O)c1cc(-c2ccc(C=C3C(=O)c4ccccc4C3=O)o2)ccc1O [Compound 5378650]
- Ki ([1]; Ki(c)): 3.2 µM

SMILES: O=C(O)c1cccc(-c2ccc(/C=C3\SC(=S)N(Cc4ccccc4)C3=O)o2)c1 [Compound 5680282]
- Ki ([1]; Ki(c)): 17.7 µM
- Ki ([1]; Ki(u)): 42.8 µM

SMILES: O=C(O)c1cc(-c2ccc(/C=N/n3cnnc3)o2)ccc1O [Compound 5381181]
- Ki ([1]; Ki(c)): 3.73 µM

SMILES: N=C1NC(=O)/C(=C\c2ccc(-c3cccc(C(=O)O)c3)o2)S1 [Compound 5377688]
- Ki ([1]; Ki(c)): 19.2 µM

SMILES: O=C1NC(=O)/C(=C\c2ccco2)S1 [Compound 5377816]
- YopH inhibition (in words) [1]: complete loss of YopH inhibition

SMILES: O=C(O)c1ccccc1O [salicylic acid, reference compound]
- Ki ([1]; Ki): 882 µM

SMILES: Cc1cc2nc3s/c(=C\c4ccc(-c5ccc(O)c(C(=O)O)c5)o4)c(=O)n3c2cc1C [Compound 5670901]
- Ki ([1]; Ki): 0.92 µM
- Ki ([1]; Ki(c)): 0.922 µM
- Ki ([1]; Ki(u)): 8.3 µM
- IC50 [2]: 2 µM
- IC50 [3]: 7 µM
- IC50 [4]: 11 µM
- IC50 [5]: 7.7 µM
- IC50 [6]: 2.5 µM
- IC50 [7]: 21.2 µM
- IC50 [8]: > 250 µM
- IC50 [9]: > 250 µM
- IC50 [10]: 32.6 µM
- IC50 [11]: > 250 µM
- Kd [12]: 540 nM

SMILES: O=C1NC(=S)S/C1=C\c1ccc(-c2cc(C(=O)O)ccc2Cl)o1 [Compound 6431206]
- Ki ([1]; Ki(c)): 16.2 µM

SMILES: O=C1NC(=O)C(=Cc2ccc(-c3ccc(O)c(C(=O)O)c3)o2)C(=O)N1 [Compound 5377894]
- fold higher Ki value [1]: 12.5 fold
- Ki ([1]; Ki): 4.1 µM
- Ki ([1]; Ki(c)): 4.13 µM

SMILES: COc1ccc(C2=CC(=O)C=CC2=O)cc1 [Compound 5760449]
- Ki ([1]; Ki(c)): 6.52 ± 1.19 µM
- Ki ([1]; Ki(u)): 8.02 ± 0.589 µM

SMILES: O=C1C=CC(=O)C(c2ccc(C(=O)O)cc2)=C1 [4-(3,6-dioxocyclohexa-1,4-dienyl)benzoic acid]
- time-dependence of inhibition [1]: clearly showed a time-dependent inhibition

SMILES: COc1ccc(-c2ccc(/C=C3\SC(=S)NC3=O)o2)cc1[N+](=O)[O-] [Compound 6701338]
- Ki ([1]; Ki(c)): 6.53 µM
- Ki ([1]; Ki(u)): 9.8 µM

SMILES: O=C1NC(=S)S/C1=C\c1ccc(-c2cc([N+](=O)[O-])ccc2O)o1 [Compound 5740279]
- Ki ([1]; Ki(c)): 17.1 µM
- Ki ([1]; Ki(u)): 16.5 µM

SMILES: O=C1NC(=S)S/C1=C/c1ccc(-c2ccc(C(=O)O)cc2)o1 [Compound 5660015]
- Ki ([1]; Ki(c)): 19.7 µM

SMILES: Cc1cc(C)c2nc3s/c(=C\c4ccc(-c5ccc(O)c(C(=O)O)c5)o4)c(=O)n3c2c1 [Compound 5675844]
- Ki ([1]; Ki): 8.8 µM
- Ki ([1]; Ki(c)): 8.82 µM
- Ki ([1]; Ki(u)): 10.9 µM

SMILES: O=Cc1ccc(-c2ccc(C(=O)O)c(O)c2)o1 [Compound 8164075]
- YopH inhibition (in words) [1]: still capable of inhibiting YopH in the low micromolar range
- Ki ([1]; Ki(c)): 7.89 µM
- Ki ([1]; Ki(u)): 61.2 µM

SMILES: CSCCC(C(=O)O)N1C(=O)/C(=C\c2ccc(-c3ccc([N+](=O)[O-])cc3)o2)SC1=S (centres unmarked) [Compound 5850330]
- Ki ([1]; Ki(c)): 9.78 ± 3.32 µM
- IC50 [2]: 11.5 µM
- IC50 [3]: 38.8 µM
- IC50 [4]: 197 µM
- IC50 [5]: 20.8 µM
- IC50 [6]: 38.7 µM
- IC50 [7]: 49 µM
- IC50 [8]: > 250 µM
- IC50 [9]: 106 µM
- IC50 [10]: 95.9 µM
- IC50 [11]: > 300 µM

SMILES: Cc1cc(C(=O)O)ccc1-c1ccc(/C=C2\SC(=S)NC2=O)o1 [Compound 6338530]
- Ki ([1]; Ki(c)): 11.4 µM
- Ki ([1]; Ki(u)): 84.2 µM

SMILES: O=C1NC(=O)/C(=C\c2ccc(-c3cccc([N+](=O)[O-])c3)o2)S1 [Compound 5376305]
- Ki ([1]; Ki(u)): 50 µM

SMILES: O=C1NC(=S)NC(=O)C1=Cc1ccc(-c2ccc(C(=O)O)c(O)c2)o1 [Compound 5557271, 4-(5-((tetrahydro-4,6-dioxo-2-thioxopyrimidin-5(6H)-ylidene)methyl)furan-2-yl)-salicylic acid]
- fold lower inhibitory constant than salicylic acid alone [1]: 2667 fold
- Ki ([1]; Ki): 0.33 µM
- Ki ([1]; Ki(c)): 0.33 µM
- IC50 [2]: 1.4 µM
- IC50 [3]: 9.7 µM
- IC50 [4]: 11 µM
- IC50 [5]: 10.9 µM
- IC50 [6]: 1.7 µM
- IC50 [7]: 34.7 µM
- IC50 [8]: > 250 µM
- IC50 [9]: > 250 µM
- IC50 [10]: 32.4 µM
- IC50 [11]: > 250 µM
- Kd [12]: 330 nM

SMILES: c1ccc(Nc2nc(-c3ccccc3)[n+](-c3ccccc3)s2)cc1 [Compound 5858065]
- Ki ([1]; Ki(c)): 1.87 ± 0.924 µM
- Ki ([1]; Ki(u)): 2.57 ± 0.563 µM

SMILES: O=C(Cn1nnc(-c2ccccc2)n1)N/N=C/c1ccc(-c2ccc(O)c(C(=O)O)c2)o1 [Compound 5680029]
- Ki ([1]; Ki(c)): 2.8 µM
- Ki ([1]; Ki(u)): 8.9 µM
- IC50 [2]: 5.1 µM
- IC50 [3]: 14.3 µM
- IC50 [4]: 22.7 µM
- IC50 [5]: 35.8 µM
- IC50 [6]: 15.1 µM
- IC50 [7]: 31.6 µM
- IC50 [8]: > 250 µM
- IC50 [9]: 34.9 µM
- IC50 [10]: 47.9 µM
- IC50 [11]: > 250 µM
- Kd [12]: 1040 nM

SMILES: Cc1ccc(-c2ccc(/C=C3\SC(=S)NC3=O)o2)c([N+](=O)[O-])c1 [Compound 6145062]
- Ki ([1]; Ki(u)): 94.1 µM

SMILES: O=C1NC(=O)/C(=C/c2ccc(-c3ccc(O)c(C(=O)O)c3)o2)S1 [Compound 5842540]
- Ki ([1]; Ki(c)): 1.13 ± 0.198 µM
- Ki ([1]; Ki(u)): 14.1 ± 4.21 µM
- IC50 [2]: 3.9 µM
- IC50 [3]: 12 µM
- IC50 [4]: 30.2 µM
- IC50 [5]: 12.2 µM
- IC50 [6]: 5.7 µM
- IC50 [7]: 27.5 µM
- IC50 [8]: > 250 µM
- IC50 [9]: 38.5 µM
- IC50 [10]: 34.5 µM
- IC50 [11]: 215 µM
- Kd [12]: 1340 nM

SMILES: CCN1C(=O)/C(=C\c2ccc(-c3ccc(O)cc3)o2)SC1=S [Compound 5667408]
- Ki ([1]; Ki(c)): 38.6 µM
- Ki ([1]; Ki(u)): 55.7 µM
